Here are results for one compound from article PMC9532399, “The lysosomal transporter TAPL has a dual role as peptide translocator and phosphatidylserine floppase” (Nature Communications, 2022).

Assay [1] has as its system TAPL E664Q mutant. Kind of assay: Dithionite-based flip-flop assay, E664Q proteoliposomes. The assay is classed as biochemical, mouse. As to conditions: for NBD*-PS fluorescence intensity (net percentage transported): E664Q. The protocol:
(§1) All lipids used in reconstitution were purchased from Avanti Polar Lipids, Inc. (purity > 99%). The in vitro flip–flop assay was performed using NBD* dye-labeled proteoliposomes as described previously. Briefly, E. coli polar lipids and egg PC were mixed in a 1:1 molar ratio, and 0.5% (mol/mol) NBD*-lipid was added. The lipid mixture was then dried under nitrogen gas. The NBD*-lipids used were 18:1-06:0 NBD*-PS (1-oleoyl-2-{6-[(7-nitro-2-1,3-benzoxadiazol-4-yl)amino]hexanoyl}-sn-glycero-3-phosphoserine), 18:1-06:0 NBD*-PC (1-oleoyl-2-{6-[(7-nitro-2-1,3-benzoxadiazol-4-yl)amino]hexanoyl}-sn-glycero-3-phosphocholine), 18:1-06:0 NBD*-PG (1-oleoyl-2-{6-[(7-nitro-2-1,3-benzoxadiazol-4-yl)amino]hexanoyl}-sn-glycero-3-[phospho-rac-(1-glycerol)]), 18:1-06:0 NBD*-PE (1-oleoyl-2-{6-[(7-nitro-2-1,3-benzoxadiazol-4-yl)amino]hexanoyl}-sn-glycero-3-phosphoethanolamine), and 25-NBD*-Cholesterol (25-[N-[(7-nitro-2-1,3-benzoxadiazol-4-yl)methyl]amino]−27-norcholesterol). Thin lipid films were solubilized in 20 mM HEPES–NaOH pH 8.0, 200 mM NaCl and 5% (v/v) glycerol, incubated at RT for 30 min and subjected to 5 freeze–thaw cycles. After extrusion with a Mini-Extruder at 65 °C, final lipid concentrations were determined by phosphorus assays. Briefly, 10 μL of extruded lipid was added to 10 μL of 2% (w/v) ammonium molybdate and 300 μL of concentrated perchloric acid. The mixture was heated at 250 °C for 30 min, then cooled to RT and mixed with 1.5 mL of 0.4% (w/v) ammonium molybdate and 250 μL of 9% (w/v) L-ascorbic acid. It was again heated at 100 °C for 6 min and cooled to RT. Lipid concentrations were calculated from the absorbance at 820 nm using a standard curve prepared with NaH2PO4 solution. After accurately determining the lipid concentration, DM-purified protein and 5 mM lipid suspension (solubilized in 5 mM DM) were mixed 1:25 (w/w). […]
(§2) To measure the flip–flop activity, 10 μL of 2 mM NBD*-labeled proteoliposomes were added to 100 μL of reaction buffer (20 mM HEPES–NaOH pH 8.0, 200 mM NaCl, 5 mM ATP and 5% (v/v) glycerol) in the presence of 2 mM MgCl2 (or NaCl), and incubated at 37 °C for 1 h. The mixture was transferred to a 96-well plate and time-dependent fluorescence (λex/λem = 460/538 nm) was recorded every 30 s for 26 min using a fluorescence spectrophotometer (Gemini XPS). After the baseline fluorescence had stabilized, 10 mM sodium dithionite was added to quench the fluorescence of NBD*-lipid present in the outer leaflets of the liposomes. The initial rapid drop and subsequent slow decline in fluorescence intensity were monitored. […] The net percentage of NBD*-lipid translocated across the lipid bilayer was calculated from the following equation[72]: the percentage of protected NBD*-lipid in the inner leaflet = [(FD−F0)/(FT−F0)]×100, and that of accessible NBD*-lipid in the outer leaflet = [(FT−FD)/(FT−F0)]×100, where FT is the total fluorescence of the sample before the addition of dithionite, FD is the fluorescence of the sample after quenching with dithionite, and F0 is any residual fluorescence of the sample after solubilization with Triton X-100. Fluorescence values (FT, FD, F0) were calculated as the averages of 5 points on the respective plateau lines. The ΔTMD0-mediated lipid floppase activity was determined by subtracting the percentage of NBD*-lipid fluorescence measured in the presence of Na^+/ATP from that measured in the presence of Mg^2+/ATP.

Assay [2] has as its target T1, TAPL Y405A mutant (Mus musculus, UniProt Q9JJ59, Y405A).
T1 construct: thrombin cleavage site (C); eGFP (C); 10XHis (C); made in house; host or cells: Trichoplusia ni High Five (Hi5) insect cells, baculovirus (pVL1393)
T1 sequence (Q9JJ59 143-762 Y405A): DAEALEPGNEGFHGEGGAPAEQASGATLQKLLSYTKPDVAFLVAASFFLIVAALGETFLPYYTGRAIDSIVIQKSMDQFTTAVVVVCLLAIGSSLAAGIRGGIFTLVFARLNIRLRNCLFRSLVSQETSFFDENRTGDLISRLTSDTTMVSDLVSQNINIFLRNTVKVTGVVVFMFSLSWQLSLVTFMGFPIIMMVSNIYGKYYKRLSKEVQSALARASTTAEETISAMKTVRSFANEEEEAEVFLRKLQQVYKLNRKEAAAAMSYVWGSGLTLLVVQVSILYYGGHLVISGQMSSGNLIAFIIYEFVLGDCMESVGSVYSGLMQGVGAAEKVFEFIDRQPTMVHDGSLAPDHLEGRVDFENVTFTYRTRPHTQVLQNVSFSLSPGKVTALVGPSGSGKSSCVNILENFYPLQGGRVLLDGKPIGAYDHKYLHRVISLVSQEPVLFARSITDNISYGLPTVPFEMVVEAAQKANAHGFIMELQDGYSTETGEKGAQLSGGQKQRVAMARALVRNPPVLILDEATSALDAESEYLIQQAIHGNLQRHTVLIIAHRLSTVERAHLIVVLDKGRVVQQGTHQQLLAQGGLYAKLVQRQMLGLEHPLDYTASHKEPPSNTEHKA
Kind of assay: Dithionite-based flip-flop assay, Y405A proteoliposomes. It is filed as biochemical. The protocol: as §1, with “The mixture was heated at 250 °C for 30 min, then cooled to RT and mixed with 1.5 mL of 0.4% (w/v) ammonium molybdate and 250 μL of 9% (w/v) L-ascorbic acid. It was again heated at 100 °C for 6 min and cooled to RT.” left out, “solution.” for “solution. After accurately determining the lipid concentration, DM-purified protein and 5 mM lipid suspension (solubilized in 5 mM DM) were mixed 1:25 (w/w).”
as §2, with “Fluorescence values (FT, FD, F0) were calculated as the averages of 5 points on the respective plateau lines. The ΔTMD0-mediated lipid floppase activity was determined by subtracting the percentage of NBD*-lipid fluorescence measured in the presence of Na^+/ATP from that measured in the presence of Mg^2+/ATP.” left out

In the case of `CCCCCCCC/C=C\CCCCCCCC(=O)OC[C@H](COP(=O)(O)OC[C@H](N)C(=O)O)OC(=O)CCCCCNc1ccc([N+](=O)[O-])c2nonc12` [NBD*-PS, 1-oleoyl-2-{6-[(7-nitro-2-1,3-benzoxadiazol-4-yl)amino]hexanoyl}-sn-glycero-3-phosphoserine], the “NBD*-PS fluorescence intensity (net percentage transported)” value in assay [1] (Mg2+/ATP minus Na+/ATP, no peptide, no POPS, mean n=3) is on record as 1.892%; in assay [1] (replicate I), 1.638%; in assay [1] (replicate II), 1.974%; in assay [1] (replicate III), 2.062%; in assay [2] (replicate I), 1.636%; in assay [2] (replicate II), 1.459%. Further, the “NBD*-PS fluorescence intensity (net percentage transported)” value in assay [2] (replicate III) is 1.571%. For the same compound, the “movement of NBD*-PS to the inner leaflet” value in assay [1] (catalytically inactive E664Q mutant) is listed as ~ 1.9%. In assay [2] (Mg2+/ATP minus Na+/ATP, mean n=3), the “NBD*-PS fluorescence intensity (net percentage transported outer to inner leaflet)” value turned out to be 1.556%.
